Measured values: patent US9359634B2, “Fast reaction kinetics of enzymes having low activity in dry chemistry layers” (Roche Diabetes Care, Inc., priority 2009, dated 2016)

Experiments:
[1] = target: T1, wild type glucose dehydrogenase (GlucDH) from Bacillus subtilis (Bacillus subtilis, UniProt P12310, A229V/A236S/Q252K); assay: Detection of ternary complexes by NADH fluorescence in the cuvette test; type: binding
Procedure: In order to check the existence of ternary complexes consisting of enzyme, reduced coenzyme and glucose or gluconolactone, experiments on the binding of the analyte based on the fluorescence properties of NADH were carried out in the cuvette test.
For this purpose, 1 mg NADH (Roche Company) was dissolved in 1 ml phosphate buffer and the associated fluorescence spectrum was recorded. Subsequently, 10 mg wild type glucose dehydrogenase (GlucDH) from Bacillus subtilis was added whereupon the complex GlucDH-NADH known from the literature was formed, which complex, due to a considerably longer life time of NADH (3 ns compared to 0.4 ns in the free state), yielded a shifted emission maximum at 450 nm (see FIG. 3).
The lowering of the fluorescence which also corresponds to a shortening of the life time is presumably due to the rapid energy depletion by the redox pair NADH-gluconolactone.

[2] = target: glucose dehydrogenase from Bacillus subtilis (Bacillus subtilis, UniProt P12310, A229V/A236S/Q252K); type: biochemical; details: dry reagent layer with wild type glucose dehydrogenase, blood applied, presence vs absence of gluconolactone
[3] = target: T1, wild type glucose dehydrogenase (GlucDH) from Bacillus subtilis; details: in the complex GlucDH-NADH; cited from earlier work

T1 sequence (P12310 whole entry A229V/A236S/Q252K): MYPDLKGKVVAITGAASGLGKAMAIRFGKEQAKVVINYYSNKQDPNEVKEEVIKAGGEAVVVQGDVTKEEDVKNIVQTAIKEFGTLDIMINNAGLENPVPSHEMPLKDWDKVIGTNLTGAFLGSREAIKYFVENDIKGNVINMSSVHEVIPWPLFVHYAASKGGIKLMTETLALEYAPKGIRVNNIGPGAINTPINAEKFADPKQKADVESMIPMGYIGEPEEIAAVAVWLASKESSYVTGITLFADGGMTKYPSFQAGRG
Sequence of glucose dehydrogenase from Bacillus subtilis (P12310 whole entry A229V/A236S/Q252K): as above

SMILES | change of fluorescence on titration of the complex GlucDH-NADH ([1]; binary complex GlucDH-NADH titrated with the substance) | emission maximum ([1]; complex GlucDH-NADH after titration with gluconolactone) | effect of added gluconolactone on the conversion of glucose [2] | emission maximum ([1]; NADH in the complex GlucDH-NADH, phosphate buffer) | life time of NADH [3]
O=C1O[C@H](CO)[C@@H](O)[C@H](O)[C@H]1O [gluconolactone] | lowered the fluorescence | 427 nm | considerable slowing down of the conversion | – | –
NC(=O)C1=CN([C@@H]2O[C@H](COP(=O)(O)OP(=O)(O)OC[C@H]3O[C@@H](n4cnc5c(N)ncnc54)[C@H](O)[C@@H]3O)[C@@H](O)[C@H]2O)C=CC1 [NADH] | – | – | – | 450 nm | 3 ns
